In paper PMC11944514, “Dengue Virus Inhibitors as Potential Broad-Spectrum Flavivirus Inhibitors” (Pharmaceuticals, 2025):
pEC50: −log10 of the molar value. Read-outs that look alike come from different tables or passages of the source.

Columns and labels:
Vero E6 [1] = conditions: cited from earlier work
ZIKV = test system: ZIKV; design: method as in PMID 29642580; conditions: reference inhibitor compound; cited from earlier work
KUNV = conditions: cited from earlier work
TBEV = conditions: cited from earlier work
DENV2-Nanoluc = assay: microbe, parasite or virus in culture; type: cell-based
[2] = test system: New Guinea C strain of DENV2; conditions: human Huh7 cells infected for 48 h, Renilla luciferase assay; read-out: EC50 against the New Guinea C strain of DENV2; cited from earlier work
ZIKV-Nanoluc = assay: microbe, parasite or virus in culture; type: cell-based; conditions: for EC50: Zika virus, Vero C1008, read-out: ZIKV EC50, μM
TBEV-Nanoluc = assay: microbe, parasite or virus in culture; type: cell-based
[3] = xCELLigence real-time cytotoxicity assay (RTCA), CC50; type: cell-based; conditions: African green monkey, Vero E6 cells, 24 h of exposure
Method: As compounds C1, C2, and C3 were relatively toxic (Figure 2A), we determined the selectivity index (SI) of the identified potential broad-spectrum flavivirus inhibitors. As the WST-1 assay tends to underestimate the toxic effect and is unable to detect cytostatic effects, the CC50 of the perspective compounds was measured using a more sensitive xCELLigence real-time cytotoxicity assay (RTCA). […] The full xCELLigence RTCA data are provided in the Supporting Information section (Figures S2 and S3). Thereafter, for each compound, the SI was calculated as a ratio of the CC50 of a compound against its EC50 [36].
Vero E6 cells were seeded on a 16-well E-plate (ACEA Biosciences, Inc., San Diego, CA, USA ) at a density of 5 × 10^3 cells/well and allowed to adhere overnight. On the next day, the studied compounds were added at the final concentrations ranging from 0.078 μM to 5 μM with a two-fold dilution step for compounds C1, C2, and C3, and at the final concentrations ranging from 1.56 μM to 50 μM with a two-fold dilution step for compounds C5 and C6; 0.01% DMSO was used as a solvent control. The cells were incubated for 5 days, and the signals between the electrodes (impedance) were recorded using an RTCA xCELLigence machine (Agilent Technologies, Inc., Santa Clara, CA, USA). […] The CC50 values were calculated using GraphPad Prism 10.0 for Windows, GraphPad Software, v. 10.4.1, Boston, MA, USA, www.graphpad.com (accessed on 16 February 2025).

KUNV-Nanoluc = assay: organism not typed; type: cell-based; conditions: for EC50: Vero C1008, read-out: KUNV EC50, μM
KUNV-Nanoluc replicon = type: cell-based
TBEV-Nanoluc replicon = type: cell-based
DENV2-Nanoluc replicon = type: cell-based
DENV2 [4] = test system: DENV2; design: method as in PMID 25878766; conditions: BHK-21 cells; read-out: EC50, inhibition of DENV2 infection; cited from earlier work
ZIKV-Nanoluc replicon = type: cell-based
Vero E6 cells = assay: WST-1 cell viability assay, Vero E6; type: cell-based, African green monkey; conditions: Vero E6, 48 h of exposure
Method: The cytotoxic effect of all studied compounds was assessed using the WST-1 assay after 48 h of exposure. […] This observation can be explained by the fact that the compound C8 is resazurin, phenoxazine dye, also known as Alamar Blue, which is subject to irreversible metabolic reduction to the resorufin by live mammalian cells. Thus, the cytotoxic effect of this compound cannot be assessed by the WST-1 assay correctly. Therefore, the C8 cytotoxicity was further assessed using the resazurin cell viability assay. This assay allowed us to avoid the interference between the tested compound and dye and obtain more reliable results for colored compounds.
Vero E6 or U2OS cells were seeded on the 96-well plate at a density of 1 × 10^4 cells/well and were allowed to adhere overnight. Next day, the cells were treated with the studied compounds at concentrations ranging from 1 to 100 μM with a ten-fold dilution step. As a solvent control, 0.01% DMSO (Sigma, St. Louis, MO, USA) was used. After 48 h of exposure, 10 μL of WST-1 (10 mg/mL) cell proliferation reagent (Roche, Cat. No. 11644807001) was added to each well, and plates were incubated at 37 °C, 5% CO2 for 2 h. The optical density was then measured at 450 nm using an Epoch Microplate Spectrophotometer (BioTek Instruments, Inc., Winooski, VT, USA). Four independent experiments were carried out in triplicates.

DENV2 [5] = test system: DENV2; design: method as in PMID 20837762; conditions: reference inhibitor compound; cited from earlier work
Vero E6 [6] = test system: Vero E6; design: method as in PMID 20837762; conditions: reference inhibitor compound; cited from earlier work

Compound: CCOC(=O)c1c(CSc2ccccc2)n(C)c2cc(Br)c(O)c(CN(C)C)c12 [Arbidol]
- CC50 (Vero E6 [1]): 89.7 µM
- pEC50 (ZIKV): 4.92
- pEC50 (KUNV): 4.73
- pEC50 (TBEV): 4.73

Compound: CC(C)(C)Oc1cccc2nc(N)nc(N)c12 [Compound C2, 5-(tert-butoxy)quinazoline-2,4-diamine]
- antiviral effect against DENV2-Nanoluc (initial screening) (DENV2-Nanoluc): apparent dose-dependent antiviral effects
- EC50 (DENV2-Nanoluc; Dengue virus, DENV2, Vero C1008, read-out: DENV2 EC50, μM): ~0.13 µM
- pEC50 (DENV2-Nanoluc; Dengue virus, DENV2, Vero C1008, read-out: EC50 against DENV2): ~6.89
- pEC50 [2]: 8.55
- antiviral effect against ZIKV-Nanoluc (initial screening) (ZIKV-Nanoluc): completely inhibited the ZIKV-Nanoluc replication at the maximum tested concentration
- concentration at which a statistically significant antiviral effect appeared (ZIKV-Nanoluc) (ZIKV-Nanoluc): 0.2 µM
- EC50 (ZIKV-Nanoluc): 0.48 µM
- antiviral effect against TBEV-Nanoluc (initial screening) (TBEV-Nanoluc): clear dose-dependent antiviral effect
- CC50 at 24 h [3]: 0.31 µM
- antiviral effect against KUNV-Nanoluc (initial screening) (KUNV-Nanoluc): decreased the KUNV-Nanoluc activity only at the maximum tested concentrations
- EC50 (KUNV-Nanoluc): 0.26 µM

Compound: CN1C(=O)C2(CC(=O)Nc3c2cnn3Cc2ccc(Cl)cc2)c2cc(Cl)ccc21 (stereo not shown) [Compound C6, 5-chloro-1′-[(4-chlorophenyl)methyl]-1-methyl-1,1′,2,5′,6′,7′-hexahydrospiro[indole-3,4′-pyrazolo[3,4-b]pyridine]-2,6′-dione]
- antiviral effect against DENV2-Nanoluc (initial screening) (DENV2-Nanoluc): apparent dose-dependent antiviral effects
- antiviral effect against KUNV-Nanoluc replicon (KUNV-Nanoluc replicon): most active against all the studied viral replicons
- antiviral effect against TBEV-Nanoluc replicon (TBEV-Nanoluc replicon): most active against all the studied viral replicons
- antiviral effect against DENV2-Nanoluc replicon (DENV2-Nanoluc replicon): most active against all the studied viral replicons
- antiviral effect against ZIKV-Nanoluc (initial screening) (ZIKV-Nanoluc): partially inhibited the virus activity at this concentration
- EC50 (ZIKV-Nanoluc): 23.9 µM
- pEC50 (DENV2 [4]): 8.22
- antiviral effect against ZIKV-Nanoluc replicon (ZIKV-Nanoluc replicon): most active against all the studied viral replicons
- antiviral effect against TBEV-Nanoluc (initial screening) (TBEV-Nanoluc): clear dose-dependent antiviral effect
- pEC50 (TBEV-Nanoluc; read-out: TBEV EC50): 4.86
- cytotoxic effect (WST-1 assay) (Vero E6 cells): no cytotoxic effect at the maximal tested concentration
- CC50 at 24 h [3]: > 50 µM
- antiviral effect against KUNV-Nanoluc (initial screening) (KUNV-Nanoluc): decreased the KUNV-Nanoluc activity only at the maximum tested concentrations
- EC50 (KUNV-Nanoluc): 20.6 µM

Compound: COc1cccc2c1C(=O)c1c(O)c3c(c(O)c1C2=O)C[C@@](O)(C(=O)CO)C[C@@H]3O[C@H]1C[C@H](N)[C@H](O)[C@H](C)O1 [Doxorubicin]
- pEC50 (DENV2 [5]): 5.92
- CC50 (Vero E6 [6]): 24 µM
